Test results reported in patent publication US6495336B1, “Oligopeptide derivatives for the electrochemical measurement of protease activity” (Pentapharm AG, priority 2001, dated 2002).

Key:
thrombin = target: T1, thrombin (Homo sapiens, UniProt P00734); experiment: Measurement of the enzymic activity of thrombin in solution (amperometric hydrolysis of substrate); type: biochemical; settings: substrate c = 0.5 mmol, 1 NIH-U of thrombin, 400 mV, HEPES 50 mM pH 7.4, KCl 0.1 M, 25° C.
T1 construct: purchased Diagnotec Liestal 100-500
Procedure: 1) A Tacusell PGP201 potentiostat, software VM1, which maintains a constant potential difference between the measuring electrode and reference electrode, is used. The measuring cell used is a glass beaker with a capacity of 25 ml or 1 ml, which can receive the 3 electrodes.
2) A platinum wire with a surface area of 34 mm^2 or 3 mm^2 is used as measuring electrode.
3) A calomel electrode (SCE) is used as reference electrode at which the potentials are measured.
4) The auxiliary electrode consists of platinum wire and serves to ensure passage of the current.
5) The measured solution is stirred by a magnetic stirrer for homogenization.
Thrombin concentration: 0.5, 1.0, 2 NIH-U/ml
Buffer: HEPES buffer, 50 mM, pH 7.4, KCl, 0.1 M
For example a 0.5 mM solution of the substrate Tos-Gly-Pro-Arg 3-chloro-4-hydroxyanilide×AcOH in HEPES buffer is prepared, as is a stock solution of thrombin with 100 NIH-U/1 ml in distilled water. 1 ml of substrate solution (c=0.5 mmol) is introduced into a 1 ml measuring cell provided with 3 electrodes of the Tacusell PGP201 potentiostat, software VM1. A cycle is allowed to run potentiodynamically from −30 to 500 mV to record the zero value (10 min). For the measurement, 10 µl of thrombin solution (final concentration 1.0 NIH-U/ml) is placed in the measuring cell, […], after mixing for 30 sec, the current is recorded potentiostatically over a time of 10 min. The measurements are carried out as duplicate determination.
FIGS. 5, 6 and 7 (μA cm^2/min, T=0-5 min, at 400 mV) show the linear cleavage rates by means of 3 substrates with different electroactive groups at a thrombin concentration of 1 NIH-U and substrate concentration c=0.5 mmol: […]

[1] = Cyclic voltammogram of the substrate (electroactivity); type: physicochemical; settings: c=0.5 mM in HEPES buffer, pH=7.4, 0.1 M KCl; -30 to 600 mV; 1 ml cell, electrode 3 mm^2
Description: […] A measurement cycle can take place when the basic current affords sufficient accuracy. The basic current is subtracted from the measurement during the hydrolysis of a substrate or the recording of a profile of an electroactive compound.
2) Evaluation of the results: the currents recorded in the linearity range are, after subtraction of the basic current at the relevant potential, proportional to the concentration of the electroactive species during the hydrolysis. The liberated electroactive species, which is cleaved off by the substrate, is likewise proportional to the enzyme concentration employed.
3) A platinum electrode is used to record the cyclic voltammograms at concentrations of 0.25 mmol, 0.5 mmol and 1.0 mmol. HEPES, 50 mmol at pH 7.4, is used as buffer. FIGS. 1 and 2 show typical cyclic reversible plots for 4-amino-2-chlorophenol and 5-amino-8-hydroxyquinoline: recorded from −30 to 600 mV at 500 mV/min. These amperogenic substances preferably show a linear dependence of the current strength on the concentration at low potential in the region of 300 mV, with a high current strength. The system is in equilibrium in this case. A higher voltage of >400 mV is undesired because of interference with possible constituents in the blood, for example paracetamol. […]

Substance	Standardization: current resulting from hydrolysis of the substrate with thrombin, per cm^2 of electrode surface area in one minute (thrombin)	Electroactivity of the uncleaved substrate at 400 mV [1]
H-(D)-Chg-Gly-Arg 3-chloro-4-hydroxyanilide×2 TFA	3 μA/cm^2 of electrode	
Tos-Gly-Pro-Arg 3-chloro-4-hydroxyanilide×AcOH	2 μA/cm^2 of electrode	no electroactivity
Z-gly-pro-arg 2-chloro-4-hydroxyanilide×HCl	0.5 μA/cm^2 of electrode	
